# Reference: US10709697B2, “Bis-amines, compositions, and uses related to CXCR4 inhibition” (Emory University, priority 2015, dated 2020)
# Assays:
# [1] = biological target: T1, CXCR4 (Homo sapiens, UniProt P61073); test: Primary binding affinity screening (competition with biotinylated TN14003)
# T1 construct: endogenous in cells; host or cells: MDA-MB-231
# Experimental: The compounds were initially screened with a binding affinity assay. […] MDA-MB-231 cells were pre-incubated with compounds at concentrations of 1, 10, 100, and 1000 nM, then incubated with biotinylated TN14003 and streptavidin-conjugated rhodamine to determine the binding efficiency of the new compounds to the CXCL12 binding domain of CXCR4. […] Thus, this screening is a semi-quantitative, first pass measure of the level of activity.
# For binding affinity assay, 2×10^4 MDA-MB-231 cells in 300 μL of cell culture medium were seeded in an 8-well slide chamber 2 days before the experiments were conducted. Various concentrations of different compounds (1, 10, 100, or 1000 nM) were added to the separate wells and incubated for 10 min at room temperature, and then the cells were fixed in 4% ice-cold paraformaldehyde. The cells were rehydrated in phosphate-buffered saline (PBS). The slides were subsequently incubated for 30 min at room temperature with 0.05 μg/mL biotinylated TN14003, washed three times with PBS, and incubated in streptavidin-rhodamine (1:150 dilution; Jackson ImmunoResearch Laboratories, West Grove, Pa.) for 30 min at room temperature. Finally, the slides were washed with PBS and mounted in an anti-fade mounting solution (Molecular Probes, Eugene, Oreg.), and the samples were analyzed on a Nikon Eclipse E800 microscope.
# [2] = tested on: CXCR4/CXCL12-mediated chemotaxis and invasion; test: Matrigel invasion assay; type: cell-based; conditions: for inhibition at 0.1 µM: single concentration of 100 nM, CXCL12 as chemoattractant, FIG. 2, read-out: inhibitory rate, Matrigel invasion; for Invasion: Table 3, concentration used 100 nM
# Source text: To model in vitro metastasis, a Matrigel® invasion assay was used as the functional assay. […] A layer of Matrigel® matrix-coated permeable support (8 μm pore diameter) separates the upper and lower chambers.
# [3] = tested on: carrageenan-induced mouse paw edema; test: In vivo suppression against carrageenan-induced paw edema; conditions: for Carageenan: Table 3, mice dosed 10 mg of compound per kg
# Experimental: CXCR4 plays a role in the recruitment of inflammatory cells to sites of inflammation. Blocking CXCR4 is a therapeutic strategy in inflammatory diseases. A carrageenan-induced mouse paw edema model as an efficient model to evaluate the in vivo CXCR4 antagonistic activity for CXCR4 inhibitors.
# Acute inflammation was induced by subcutaneous injection of 50 μL of λ-carrageenan (1% w/v in saline) into one of the hind paws of the female C57BL/6J mice (Jackson Laboratories); the other hind paw was injected with 50 μL of saline, which was used as a non-inflammation control. The selected compounds were dissolved in 10% DMSO and 90% of 45% (2-hydroxypropyl)-β-cyclodextrin (CD) in PBS. In the treatment group, compounds IIg, IIk, IIm and IIn were administered intraperitoneally (i.p.) at 10 mg/kg daily, while TN14003 was administered at 300 μg/kg, i.p., daily, 30 min following carrageenan challenge. The rationale for using 300 μg/kg for TN14003 was that this concentration was reported to be the minimum concentration needed to achieve the maximum efficacy of this compound in a […] metastasis animal model. See Yoon et al. CXC chemokine receptor-4 antagonist blocks both growth of primary tumor and metastasis of head and neck cancer in xenograft mouse models. Cancer Res., 67 (2007), pp. 7518-7524. Control animals received corresponding i.p. injections of the vehicle. The animals were sacrificed 74 h after carrageenan challenge and 2 h after the last injection of the selected compounds. The final paws were photographed and measured for thickness from the “palm” to the back of the paw with a caliper. These were compared to the volume of carrageenan-untreated contralateral paw to obtain the edema volume; the volume of the contralateral paw was subtracted from the volume of the carrageenan injected paw to obtain the edema volume. The inflammation-suppression percentage was calculated by comparing the drug-treated group to the control group.
# [4] = tested on: carrageenan-induced mouse paw edema; test: as above; conditions: 10 mg/kg i.p. daily; paw tissue histology
# [5] = effective concentration = lowest concentration with significant reduction of rhodamine fluorescence, MDA-MB-231 cells, tested at 1, 10, 100, 1000 nM
# T1 sequence (P61073 whole entry): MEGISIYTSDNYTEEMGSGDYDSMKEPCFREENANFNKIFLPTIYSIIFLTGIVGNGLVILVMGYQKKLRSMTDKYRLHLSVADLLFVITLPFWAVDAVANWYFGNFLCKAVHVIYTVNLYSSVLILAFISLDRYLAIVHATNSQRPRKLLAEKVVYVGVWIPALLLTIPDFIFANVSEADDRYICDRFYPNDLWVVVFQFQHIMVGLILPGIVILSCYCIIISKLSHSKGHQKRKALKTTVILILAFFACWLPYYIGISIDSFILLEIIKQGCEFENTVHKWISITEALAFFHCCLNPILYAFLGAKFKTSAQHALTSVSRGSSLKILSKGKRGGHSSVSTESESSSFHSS
SMILES,"EC [1, 5] [nM]",melting point [°C],inhibition at 0.1 µM [2] [%],other results
"CN(Cc1ccccn1)Cc1cccc(CN(C)Cc2ccccn2)n1 [IIn, N,N′-(Pyridine-2,6-diylbis(methylene))bis(N-methyl-1-(pyridin-2-yl)methanamine)]",10,,72.6,"inflammation-suppression percentage (paw edema) ([3]; 10 mg/kg i.p. daily, female C57BL/6J mice, 74 h after carrageenan challenge): 50%; mouse paw inflammation and damage in histological assay [4]: significantly attenuated"
"CN(Cc1cccc(CN(C)c2ccccc2)n1)c1ccccc1 [IId, N,N′-(Pyridine-2,6-diylbis(methylene))bis(N-methylaniline)]",1000,91 to 93,,
"c1cc(CN2CCCCC2)ccc1CN1CCCCC1 [Ib, 1,4-Bis(piperidin-1-ylmethyl)benzene]",10,84 to 86,< 50,
"CCc1ccccc1NCc1cccc(CNc2ccccc2CC)n1 [2,6-Bis(2-ethylanilinomethyl)pyridine]",,,,EC ([1]; Table 3): 1 nM; Invasion [2]: 59%; Carageenan [3]: 18.1%
"COc1cccc(NCc2cccc(CNc3cccc(OC)c3)n2)c1 [2,6-Bis(3-methoxyanilinomethyl)pyridine]",,,,EC ([1]; Table 3): 100 nM; Invasion [2]: 37%; Carageenan [3]: 20.1%

# Second part, led by results:
"EC [1, 5] [nM]",melting point [°C],SMILES,inhibition at 0.1 µM [2] [%],other results
>1000,80 to 82,"CN(Cc1ccc(F)cc1)Cc1ccc(CN(C)Cc2ccc(F)cc2)cc1 [Ij, N,N′-(1,4-Phenylenebis(methylene))bis(1-(4-fluorophenyl)-N-methylmethanamine)]",,
1000,77 to 79,"CN(Cc1ccc(CN(C)c2ccccc2)cc1)c1ccccc1 [Id, N,N′-(1,4-Phenylenebis(methylene))bis(N-methylaniline)]",,
>1000,113 to 115,"c1cc(CN2CCOCC2)ccc1CN1CCOCC1 [Ic, 1,4-Bis(morpholinomethyl)benzene]",,
100,78 to 80,"CN(Cc1ccc(CN(C)c2ccc(F)cc2)cc1)c1ccc(F)cc1 [Ie, N,N′-(1,4-phenylenebis(methylene))bis(4-fluoro-N-methylaniline)]",66.4,
